US8440710B2, “HSL inhibitors useful in the treatment of diabetes” (Hoffmann-La Roche Inc., priority 2009, dated 2013)

Target: T1, human HSL (Homo sapiens, UniProt Q05469)
T1 construct: generate a full length human HSL ORF with a 3′-His6 tag; made in house; host or cells: High 5 insect cells (baculovirus, pFast-BAC)
T1 sequence (Q05469 1-1076): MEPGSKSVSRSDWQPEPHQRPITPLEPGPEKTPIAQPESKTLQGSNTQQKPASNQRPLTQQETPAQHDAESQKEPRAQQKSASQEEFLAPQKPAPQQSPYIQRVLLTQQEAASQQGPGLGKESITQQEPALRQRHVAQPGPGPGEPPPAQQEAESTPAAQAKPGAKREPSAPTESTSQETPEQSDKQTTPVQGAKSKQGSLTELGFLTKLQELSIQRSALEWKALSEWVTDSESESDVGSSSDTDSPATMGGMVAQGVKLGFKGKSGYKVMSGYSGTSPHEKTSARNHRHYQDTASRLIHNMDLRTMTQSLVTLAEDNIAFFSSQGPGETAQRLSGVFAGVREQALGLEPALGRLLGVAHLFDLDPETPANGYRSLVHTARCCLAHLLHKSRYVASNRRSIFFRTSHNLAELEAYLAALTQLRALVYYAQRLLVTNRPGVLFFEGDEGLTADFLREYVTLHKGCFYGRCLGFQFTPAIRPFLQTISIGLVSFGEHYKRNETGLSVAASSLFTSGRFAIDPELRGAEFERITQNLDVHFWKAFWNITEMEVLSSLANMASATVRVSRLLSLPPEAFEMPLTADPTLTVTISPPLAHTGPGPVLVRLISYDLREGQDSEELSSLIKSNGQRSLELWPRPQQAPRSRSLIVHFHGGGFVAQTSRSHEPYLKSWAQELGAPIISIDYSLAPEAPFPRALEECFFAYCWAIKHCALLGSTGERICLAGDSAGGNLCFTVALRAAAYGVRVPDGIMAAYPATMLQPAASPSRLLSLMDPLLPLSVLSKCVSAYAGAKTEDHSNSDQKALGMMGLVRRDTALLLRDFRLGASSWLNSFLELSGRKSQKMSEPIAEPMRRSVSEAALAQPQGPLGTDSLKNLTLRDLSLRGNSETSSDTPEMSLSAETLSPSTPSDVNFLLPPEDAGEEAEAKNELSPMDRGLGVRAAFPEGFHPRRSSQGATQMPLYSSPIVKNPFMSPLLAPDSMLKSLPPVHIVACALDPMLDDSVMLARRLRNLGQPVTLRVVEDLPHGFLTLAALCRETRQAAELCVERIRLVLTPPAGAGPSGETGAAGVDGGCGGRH
Test: Human Hormone-Sensitive Lipase (HSL) enzyme inhibition assay (colorimetric, DMPT substrate)
Type: biochemical
Conditions: human full length HSL-His6, 2,3-dimercapto-1-propanol tributyrate substrate, 37° C. 20 minutes, absorbance at 405 nm; read-out: HSL hum IC50
Experimental: Production of Human Full Length Hormone Sensitive Lipase-His^6:
1) Cloning: cDNA was prepared from commercial human brain polyA+ RNA and used as a template in overlapping PCR to generate a full length human HSL ORF with a 3′-His6 tag. This full length insert was cloned into the pFast-BAC vector and the DNA-sequence of several single clones was verified. DNA from a correct full length clone with the 3′His6 tag was used to transform the E. coli strain DH10BAC. Resulting bacmid DNA was used to generate a titered baculovirus stock for protein generation. The sequence of the encoded HSL conforms to Swissprot entry Q05469, with the additional C-terminal His6-tag. 2) Protein purification: Culture: 5.5 L, High 5 cells expressing human full length HSL-His^6, 48 hr., containing 25 μM E-64. Cell count: […], 90% viable. Cells were thawed. On ice, cells were suspended in Base Buffer containing 10% glycerol, 25 mM Tris-Cl, 300 mM NaCl, 10 mM imidazole, 10 mM 2-mercaptoethanol, 2 μg pepstatin/ml, 2 μg leupeptin/ml, 2 μg antipain/ml, pH 8.0 at 4° C. in a final volume of 475 ml with 3.75×10^7 cells/ml. […] was done at 3×30 sec., Lubrol PX was added to 0.2% final concentration followed by stirring for 15 min. at 4° C. and centrifugation at 25 k×g, 60 min., 4° C. Soluble proteins were mixed with 60 ml of pre-washed and equilibrated Ni-NTA Agarose (Qiagen 30210) followed by tumbling end-over-end, 45 min., 4° C., centrifugation 1000 rpm 5 min and letting resin settle 5 min. Supernatant was removed, the resin washed in the centrifuge vessel using 5 volumes of Base Buffer containing 0.2% Lubrol PX. Centrifugation was done again, then the supernatant discarded. The resin was poured onto a 0.8 μm membrane in a disposable filter unit (Nalge 450-0080), and washed with 5 volumes of Base Buffer containing 0.2% Lubrol PX. It was then washed with 30 volumes of Base Buffer containing 60 mM imidazole pH 7.5 at 4° C. The protein was eluated with 5 volumes of 25 mM Tris-Cl, 300 mM NaCl, 200 mM imidazole, 10 mM 2-mercaptoethanol, pH 7.5 at 4° C. by tumbling resin with buffer end-over-end, 30 min., 4° C. The resin was captured on a 0.2 μm membrane disposable filter unit (Millipore SCGP U02 RE) and the eluate collected in the reservoir. The eluate was concentrated using a 30 k MWCO centrifugal filter device (Sartorius Vivascience Vivacell 100, VC1022), to 20 ml. It was then dialyzed overnight at 4° C., two times against 2 L of 10% glycerol, 25 mM Tris-Cl, 300 mM NaCl, 0.2 mM EDTA, 0.2 mM DTT, pH 7.5 at 4° C. The protein was filtered using a 0.22 μm disposable filter unit (Millipore SCGP00525). The protein concentration was calculated from absorbance at 280 nm, using 280=0.67 cm-1 mg-1. Yield was 235 mg, total. The protein was stored at −80° C. Human Hormone-Sensitive Lipase (HSL) Enzyme Inhibition Assay:
HSL enzyme activity was measured by a colorimetric assay using 2,3-dimercapto-1-propanol tributyrate (Aldrich, St. Louis, Mo.) as a substrate. Typically, 1.5 mM 2,3-dimercapto-1-propanol tributyrate (DMPT) in 100 mM MOPS, pH 7.2, 0.2 mg/ml fatty acid-free BSA was prepared by sonication at 4° C. to homogenous suspension. Test compounds (2 mM stock in DMSO) were diluted 3 fold in series in DMSO. Compound solutions were diluted 24 fold in 1.5 mM DMPT containing solution and 18 ul per well was added to 384-well microplates (Corning Costar). Twelve microliters per well of human HSL (15 ug/ml) was added and the reaction mixture was incubated at 37° C. for 20 minutes. Six microliters of 12 mM dithio-bis-(2-nitrobenzoic acid) (DTNB) in DMSO plus 1.2% SDS and 0.6% Triton X-100 were added and the mixture was incubated at room temperature for 15 minutes. Product production was monitored by reading absorbance at 405 nm on an Envision Reader (PerkinElmer Life and Analytical Sciences, Shelton, Conn.).

For CC(Oc1ccc(N2CCC3(CCC(O)CC3)C2=O)cc1)C(F)(F)F (mixture of isomers) [Example 162, 8-Hydroxy-2-[4-(2,2,2-trifluoro-1-methyl-ethoxy)-phenyl]-2-aza-spiro[4.5]decan-1-one], the IC50 was 220 nM.

CCC[C@]1(O)CC[C@]2(CCN(c3ccc(C(O)C(F)(F)F)cc3)C2=O)CC1 (mixture of isomers) [Example 133, (5α,8α)-8-Hydroxy-8-propyl-2-(4-(2,2,2-trifluoro-1-hydroxyethyl)phenyl)-2-aza-spiro[4.5]decan-1-one] showed an IC50 of 30 nM.

In the case of CC(C)(C)c1ccc(N2CCC3(CCC(C(O)C(F)(F)F)CC3)C2=O)cc1 (single isomer, unassigned) [Example 360, (5α,8β)-2-(4-tert-Butyl-phenyl)-8-(2,2,2-trifluoro-1-hydroxy-ethyl)-2-aza-spiro[4.5]decan-1-one], the IC50 is reported as 10 nM.

In the case of CC(C)(C)c1ccc(N2CCC3(CCC(C(O)C(F)(F)F)CC3)C2=O)cc1 (single isomer, unassigned) [Example 361, (5α,8α)-2-(4-tert-Butyl-phenyl)-8-(2,2,2-trifluoro-1-hydroxy-ethyl)-2-aza-spiro[4.5]decan-1-one], the IC50 is reported as 110 nM.

O=C1N(c2ccc(OC(F)(F)F)cc2)CC[C@]12CC[C@@H](O)CC2 [Example 1, (5α,8β)-8-Hydroxy-2-(4-trifluoromethoxy-phenyl)-2-aza-spiro[4.5]decan-1-one] was tested, and the IC50 was 470 nM.

Molecule O=C1N(c2ccc(OC(F)(F)F)cc2)CC[C@]12CC[C@H](O)CC2 [Example 2, (5α,8α)-8-Hydroxy-2-(4-trifluoromethoxy-phenyl)-2-aza-spiro[4.5]decan-1-one] has an IC50 of 150 nM.

COc1ccc(N2CC[C@]3(CC[C@@H](OCc4ccccc4)CC3)C2=O)cc1 [Example 3, (5α,8β)-8-Benzyloxy-2-(4-methoxy-phenyl)-2-aza-spiro[4.5]decan-1-one] was tested, and the IC50 was 610 nM.

CCc1ccc(N2CC[C@]3(CC[C@@H](OCc4ccccc4)CC3)C2=O)cc1 [Example 4, (5α,8β)-8-Benzyloxy-2-(4-ethyl-phenyl)-2-aza-spiro[4.5]decan-1-one] was tested, and the IC50 was 240 nM.

Work on CCc1ccc(N2CC[C@]3(CC[C@@H](O)CC3)C2=O)cc1 [Example 5, (5α,8β)-2-(4-Ethyl-phenyl)-8-hydroxy-2-aza-spiro[4.5]decan-1-one] yielded an IC50 of 2370 nM.

CCCNC(=O)O[C@H]1CC[C@@]2(CCN(c3ccc(CC)cc3)C2=O)CC1 [Example 6, Propyl-carbamic acid [(5α,8β)-2-(4-ethyl-phenyl)-1-oxo-2-aza-spiro[4.5]dec-8-yl]ester] gave an IC50 of 100 nM.

CCc1ccc(N2CC[C@]3(CC[C@@H](OC(=O)NCc4cccc(F)c4)CC3)C2=O)cc1 [Example 7, (3-Fluoro-benzyl)-carbamic acid [(5α,8β)-2-(4-ethyl-phenyl)-1-oxo-2-aza-spiro[4.5]dec-8-yl]ester] was tested, and the IC50 was 70 nM.

CCc1ccc(N2CC[C@]3(CC[C@@H](OC(=O)Nc4ccccc4)CC3)C2=O)cc1 [Example 8, Phenyl-carbamic acid [(5α,8β)-2-(4-ethyl-phenyl)-1-oxo-2-aza-spiro[4.5]dec-8-yl]ester] gave an IC50 of 270 nM.

O=C1N(c2ccc(OC(F)(F)F)cc2)CC[C@]12CC[C@@H](OCc1ccccc1)CC2 [Example 9, (5α,8β)-8-Benzyloxy-2-(4-trifluoromethoxy-phenyl)-2-aza-spiro[4.5]decan-1-one] showed an IC50 of 190 nM.

O=C(NCc1cccc(F)c1)O[C@H]1CC[C@@]2(CCN(c3ccc(OC(F)(F)F)cc3)C2=O)CC1 [Example 10, (3-Fluoro-benzyl)-carbamic acid [(5α,8β)-1-oxo-2-(4-trifluoromethoxy-phenyl)-2-aza-spiro[4.5]dec-8-yl]ester] gave an IC50 of 60 nM.

CCCNC(=O)O[C@H]1CC[C@@]2(CCN(c3ccc(OC(F)(F)F)cc3)C2=O)CC1 [Example 11, Propyl-carbamic acid [(5α,8β)-1-oxo-2-(4-trifluoromethoxy-phenyl)-2-aza-spiro[4.5]dec-8-yl]ester] gave an IC50 of 40 nM.

Work on COc1cccc(CNC(=O)O[C@H]2CC[C@@]3(CCN(c4ccc(OC(F)(F)F)cc4)C3=O)CC2)c1 [Example 12, (3-Methoxy-benzyl)-carbamic acid [(5α,8β)-1-oxo-2-(4-trifluoromethoxy-phenyl)-2-aza-spiro[4.5]dec-8-yl]ester] yielded an IC50 of 60 nM.

COc1ccc(CNC(=O)O[C@H]2CC[C@@]3(CCN(c4ccc(OC(F)(F)F)cc4)C3=O)CC2)cc1 [Example 13, (4-Methoxy-benzyl)-carbamic acid [(5α,8β)-1-oxo-2-(4-trifluoromethoxy-phenyl)-2-aza-spiro[4.5]dec-8-yl]ester] showed an IC50 of 90 nM.

O=C(NCc1ccccc1F)O[C@H]1CC[C@@]2(CCN(c3ccc(OC(F)(F)F)cc3)C2=O)CC1 [Example 14, (2-Fluoro-benzyl)-carbamic acid [(5α,8β)-1-oxo-2-(4-trifluoromethoxy-phenyl)-2-aza-spiro[4.5]dec-8-yl]ester] showed an IC50 of 20 nM.

O=C(NCc1ccc(F)cc1)O[C@H]1CC[C@@]2(CCN(c3ccc(OC(F)(F)F)cc3)C2=O)CC1 [Example 15, (4-Fluoro-benzyl)-carbamic acid [(5α,8β)-1-oxo-2-(4-trifluoromethoxy-phenyl)-2-aza-spiro[4.5]dec-8-yl]ester] was tested, and the IC50 was 70 nM.

In the case of Cc1cccc(CO[C@H]2CC[C@@]3(CCN(c4ccc(OC(F)(F)F)cc4)C3=O)CC2)n1 [Example 16, (5α,8β)-8-(6-Methyl-pyridin-2-ylmethoxy)-2-(4-trifluoromethoxy-phenyl)-2-aza-spiro[4.5]decan-1-one], the IC50 is reported as 100 nM.
